# Source: patent publication US20250205344A1, “2,4-DIOXOTETRAHYDROPYRIMIDINYL DERATIVES AS DEGRONS IN PROTACS” (GLAXOSMITHKLINE INTELLECTUAL PROPERTY DEVELOPMENT LIMITED, priority 2022, published 2025)
# Where a name gives a salt, the structure may show the parent alone.
# Target: T1, Androgen Receptor (Homo sapiens, UniProt P10275, T878A)
# T1 construct: the AR gene was modified, using CRISPR/Cas9 editing, so the expressed AR protein included an 11 amino acid HiBiT tag; endogenous in cells; host or cells: clonal LnCaP-derived line, AR gene edited by CRISPR/Cas9
# T1 sequence (P10275 whole entry T878A): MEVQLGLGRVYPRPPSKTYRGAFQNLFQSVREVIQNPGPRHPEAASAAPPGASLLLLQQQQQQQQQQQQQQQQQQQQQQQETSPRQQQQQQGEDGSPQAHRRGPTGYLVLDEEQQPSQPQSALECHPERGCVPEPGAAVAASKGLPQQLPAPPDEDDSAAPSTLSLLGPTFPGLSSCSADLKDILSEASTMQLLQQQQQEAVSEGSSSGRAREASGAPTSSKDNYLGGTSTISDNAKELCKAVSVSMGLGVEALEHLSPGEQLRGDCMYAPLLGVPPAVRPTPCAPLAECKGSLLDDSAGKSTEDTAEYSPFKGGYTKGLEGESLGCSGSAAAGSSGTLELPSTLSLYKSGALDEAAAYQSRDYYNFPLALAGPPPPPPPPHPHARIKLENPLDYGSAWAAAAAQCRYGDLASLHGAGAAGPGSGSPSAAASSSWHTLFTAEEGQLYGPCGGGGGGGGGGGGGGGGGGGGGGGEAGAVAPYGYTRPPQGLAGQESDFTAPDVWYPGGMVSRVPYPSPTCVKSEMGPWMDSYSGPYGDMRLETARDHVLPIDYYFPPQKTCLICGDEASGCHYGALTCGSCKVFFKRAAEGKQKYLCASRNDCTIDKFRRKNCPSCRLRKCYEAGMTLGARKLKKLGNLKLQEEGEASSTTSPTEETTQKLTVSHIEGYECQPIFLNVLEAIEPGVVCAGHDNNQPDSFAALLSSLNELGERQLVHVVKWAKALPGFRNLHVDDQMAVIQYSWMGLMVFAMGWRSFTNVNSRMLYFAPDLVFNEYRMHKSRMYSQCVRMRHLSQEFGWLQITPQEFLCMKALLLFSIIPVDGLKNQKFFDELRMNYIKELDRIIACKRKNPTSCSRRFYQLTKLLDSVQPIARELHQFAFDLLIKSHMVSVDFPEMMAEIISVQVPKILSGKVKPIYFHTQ
# T1 sequence (Q96SW2 whole entry partner): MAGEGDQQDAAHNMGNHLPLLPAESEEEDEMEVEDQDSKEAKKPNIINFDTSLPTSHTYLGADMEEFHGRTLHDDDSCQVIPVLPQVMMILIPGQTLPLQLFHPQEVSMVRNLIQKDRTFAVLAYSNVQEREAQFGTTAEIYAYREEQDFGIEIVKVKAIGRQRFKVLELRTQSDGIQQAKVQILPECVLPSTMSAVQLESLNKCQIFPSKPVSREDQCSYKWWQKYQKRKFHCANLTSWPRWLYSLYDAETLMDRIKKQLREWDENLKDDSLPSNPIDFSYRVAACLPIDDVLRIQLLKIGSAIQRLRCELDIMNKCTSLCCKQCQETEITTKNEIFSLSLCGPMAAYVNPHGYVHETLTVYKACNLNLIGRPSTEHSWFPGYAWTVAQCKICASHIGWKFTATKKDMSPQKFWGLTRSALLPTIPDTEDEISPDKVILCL
# T1 sequence (Q16531 whole entry partner): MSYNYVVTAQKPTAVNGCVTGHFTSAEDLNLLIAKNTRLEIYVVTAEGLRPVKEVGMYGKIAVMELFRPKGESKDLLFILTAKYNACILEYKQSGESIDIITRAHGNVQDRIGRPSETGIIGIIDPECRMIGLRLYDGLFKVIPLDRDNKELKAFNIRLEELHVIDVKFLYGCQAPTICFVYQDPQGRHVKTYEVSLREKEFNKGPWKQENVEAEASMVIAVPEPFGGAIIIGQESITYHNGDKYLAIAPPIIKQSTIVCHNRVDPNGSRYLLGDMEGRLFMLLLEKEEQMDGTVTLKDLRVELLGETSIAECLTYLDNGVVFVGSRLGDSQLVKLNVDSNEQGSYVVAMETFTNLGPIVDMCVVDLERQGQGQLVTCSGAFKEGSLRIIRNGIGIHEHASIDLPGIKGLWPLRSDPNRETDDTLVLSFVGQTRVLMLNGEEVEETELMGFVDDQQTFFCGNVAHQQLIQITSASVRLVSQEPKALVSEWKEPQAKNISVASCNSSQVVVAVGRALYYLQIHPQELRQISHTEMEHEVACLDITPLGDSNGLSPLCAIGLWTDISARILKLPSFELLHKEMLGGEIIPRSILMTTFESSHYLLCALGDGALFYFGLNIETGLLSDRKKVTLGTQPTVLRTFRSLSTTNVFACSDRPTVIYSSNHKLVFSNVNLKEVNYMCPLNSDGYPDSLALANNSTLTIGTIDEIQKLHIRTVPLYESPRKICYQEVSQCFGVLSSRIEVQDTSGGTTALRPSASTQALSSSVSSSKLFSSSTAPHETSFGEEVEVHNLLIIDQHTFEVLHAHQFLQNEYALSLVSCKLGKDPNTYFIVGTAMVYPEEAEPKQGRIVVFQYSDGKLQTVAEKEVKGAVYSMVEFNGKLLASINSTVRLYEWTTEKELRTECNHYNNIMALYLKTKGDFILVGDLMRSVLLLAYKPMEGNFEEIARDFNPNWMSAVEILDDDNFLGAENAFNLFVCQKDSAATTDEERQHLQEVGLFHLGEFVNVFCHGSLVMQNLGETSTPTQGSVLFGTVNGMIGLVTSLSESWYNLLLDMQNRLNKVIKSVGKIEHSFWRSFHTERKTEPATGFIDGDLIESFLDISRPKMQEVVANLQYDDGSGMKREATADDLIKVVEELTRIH
# Experiment: Androgen Receptor Degradation Assay (Nano-Glo HiBiT)
# Assay type: cell-based
# Details: LNCaP, 18 h, HiBiT-tagged AR in human LnCaP cells, read-out: mean asymptote max
# Protocol: Degradation of Androgen Receptor protein in human LnCaP cells treated with PROTACs was quantified using the Nano-Glo® HiBiT Lytic Detection System (Promega) in 384 well assay plate format. A clonal LnCaP derived cell line was first established in which the AR gene was modified, using CRISPR/Cas9 editing, so the expressed AR protein included an 11 amino acid HiBiT tag at its amino-terminus. 10 mM DMSO stock solutions of PROTACs were prepared and diluted across an 11 concentration, 3 fold increment range, and 25 nL dispensed into a white opaque bottomed 384 well assay plate (Thermofisher) using an acoustic ECHO dispenser (Labcyte). […] For the assay, cells were detached from flask and resuspended with assay medium (FluoroBrite™ DMEM supplemented with 10% heat inactivated FBS, penicillin 50 U/mL and streptomycin 50 ug/mL (Thermofisher)). The cell suspension was centrifuged at 400 g for 5 min and the pellet resuspended in assay medium. 25 μL of cell suspension containing 10,000 cells was dispensed into each well of the assay plate containing the test compounds, which was then incubated for 18 h at 37° C./5% CO2. Control wells were included on each assay plate, with assay medium without cells being the no AR remaining 100% effect control, and cells treated with DMSO vehicle only, without PROTAC, the 0% effect control. 25 μL of Nano-Glo® HiBiT lysis buffer supplemented with LgBiT protein and Nano-Glo® substrate (Promega) was added to each well and the plate shaken at 500 rpm for 10 min at room temperature. The intensity of luminescence was measured using a PHERAstar microplate reader (BMG Labtech) and the % AR protein remaining in each well calculated by normalising the raw luminescence value to the above control wells. Parameters corresponding to the potency and efficacy estimates of the PROTACs were obtained from these normalised luminescence values using software (IDBS ActivityBase). These included the DC50 and the Dmax estimates. Two versions of the DC50, called relative DC50 and absolute DC50, were typically generated. These are the inflection point of a fitted 4 parameter sigmoidal response curve and the interpolated concentration of PROTAC corresponding to 50% of the protein being degraded, respectively. The Dmax parameter was the maximum experimentally observed degradation and the asymptote max parameter the fitted response curve asymptote maximum.
row,Compound,Dmax [%]
1,"CC(C)n1ccc2c(N3CCC(=O)NC3=O)cc(C(=O)N(C)CC3CCN(CCCOc4ccc(N5C(=S)N(c6ccc(C#N)c(C(F)(F)F)c6)C(=O)C5(C)C)cc4)CC3)cc21 [EAR93, N-((1-(3-(4-(3-(4-Cyano-3-(trifluoromethyl)phenyl)-5,5-dimethyl-4-oxo-2-thioxoimidazolidin-1-yl)phenoxy)propyl)piperidin-4-yl)methyl)-4-(2,4-dioxotetrahydropyrimidin-1(2H)-yl)-1-isopropyl-N-methyl-1H-indole-6-carboxamide formate]",≥ 50
2,"N#Cc1ccc(O[C@H]2CC[C@H](NC(=O)c3ccc(N4CCC(CN5CCC(n6ncc7c(N8CCC(=O)NC8=O)cccc76)CC5)CC4)nn3)CC2)cc1Cl [EAR43, N-((1r,4r)-4-(3-Chloro-4-cyanophenoxy)cyclohexyl)-6-(4-((4-(4-(2,4-dioxotetrahydropyrimidin-1(2H)-yl)-1H-indazol-1-yl)piperidin-1-yl)methyl)piperidin-1-yl)pyridazine-3-carboxamide]",≥ 50
3,"N#Cc1ccc(O[C@H]2CC[C@H](NC(=O)c3cnc(N4CCC(CN5CCC(n6ncc7c(N8CCC(=O)NC8=O)c(F)ccc76)CC5)CC4)cn3)CC2)cc1C(F)(F)F [EAR189, N-((1r,4r)-4-(4-Cyano-3-(trifluoromethyl)phenoxy)cyclohexyl)-5-(4-((4-(4-(2,4-dioxotetrahydropyrimidin-1(2H)-yl)-5-fluoro-1H-indazol-1-yl)piperidin-1-yl)methyl)piperidin-1-yl)pyrazine-2-carboxamide hydrochloride]",≥ 50
4,"N#Cc1ccc(O[C@H]2CC[C@H](NC(=O)c3ccc(N4CCC(CN5CCC(n6ncc7c(N8CCC(=O)NC8=O)cncc76)CC5)CC4)nn3)CC2)cc1Cl [EAR53, N-((1r,4r)-4-(3-Chloro-4-cyanophenoxy)cyclohexyl)-6-(4-((4-(4-(2,4-dioxotetrahydropyrimidin-1(2H)-yl)-1H-pyrazolo[3,4-c]pyridin-1-yl)piperidin-1-yl)methyl)piperidin-1-yl)pyridazine-3-carboxamide hydrochloride]",≥ 50
5,"CC1(C)C(=O)N(c2ccc(C#N)c(C(F)(F)F)c2)C(=S)N1c1ccc(OCCCN2CCC(n3ccc4c(N5CCC(=O)NC5=O)cccc43)CC2)cc1 [EAR103, 4-(3-(4-(3-(4-(4-(2,4-Dioxotetrahydropyrimidin-1(2H)-yl)-1H-indol-1-yl)piperidin-1-yl)propoxy)phenyl)-4,4-dimethyl-5-oxo-2-thioxoimidazolidin-1-yl)-2-(trifluoromethyl)benzonitrile formate]",≥ 50
6,"N#Cc1ccc(O[C@H]2CC[C@H](NC(=O)c3ccc(N4CCC(OCCN5CCC(n6ncc7c(N8CCC(=O)NC8=O)cccc76)CC5)CC4)nn3)CC2)cc1Cl [EAR231, N-((1r,4r)-4-(3-chloro-4-cyanophenoxy)cyclohexyl)-6-(4-(2-(4-(4-(2,4-dioxotetrahydropyrimidin-1(2H)-yl)-1H-indazol-1-yl)piperidin-1-yl)ethoxy)piperidin-1-yl)pyridazine-3-carboxamide]",≥ 50
7,"N#Cc1ccc(O[C@H]2CC[C@H](NC(=O)c3ccc(N4CCC(C#N)(CCN5CCC(n6ncc7c(N8CCC(=O)NC8=O)cccc76)CC5)CC4)nn3)CC2)cc1Cl [EAR221, N-((1r,4r)-4-(3-chloro-4-cyanophenoxy)cyclohexyl)-6-(4-cyano-4-(2-(4-(4-(2,4-dioxotetrahydropyrimidin-1(2H)-yl)-1H-indazol-1-yl)piperidin-1-yl)ethyl)piperidin-1-yl)pyridazine-3-carboxamide]",≥ 50
8,"N#Cc1ccc(O[C@H]2CC[C@H](NC(=O)c3ccc(N4CCCC(N5CCC(n6ccc7c(N8CCC(=O)NC8=O)cccc76)CC5)C4)cc3)CC2)cc1Cl (some centres unmarked) [EAR28, N-((1r,4r)-4-(3-Chloro-4-cyanophenoxy)cyclohexyl)-4-(4-(4-(2,4-dioxotetrahydropyrimidin-1(2H)-yl)-1H-indol-1-yl)-[1,3′-bipiperidin]-1′-yl)benzamide]",≥ 50
9,"CC1(C)[C@H](NC(=O)c2ccc(N3CCC(CN4CCC(n5ncc6c(N7CCC(=O)NC7=O)ccnc65)CC4)CC3)cn2)C(C)(C)[C@H]1Oc1ccc(C#N)c2ncccc12 [EAR260, N-((1r,3r)-3-((8-Cyanoquinolin-5-yl)oxy)-2,2,4,4-tetramethylcyclobutyl)-5-(4-((4-(4-(2,4-dioxotetrahydropyrimidin-1(2H)-yl)-1H-pyrazolo[3,4-b]pyridin-1-yl)piperidin-1-yl)methyl)piperidin-1-yl)picolinamide hydrochloride]",≥ 50
10,"N#Cc1ccc(O[C@H]2CC[C@H](NC(=O)c3cnc(N4CCC(CN5CCC(n6ccc7c(N8CCC(=O)NC8=O)cc(F)cc76)CC5)CC4)cn3)CC2)cc1Cl [EAR202, N-((1r,4r)-4-(3-Chloro-4-cyanophenoxy)cyclohexyl)-5-(4-((4-(4-(2,4-dioxotetrahydropyrimidin-1(2H)-yl)-6-fluoro-1H-indol-1-yl)piperidin-1-yl)methyl)piperidin-1-yl)pyrazine-2-carboxamide hydrochloride]",≥ 50
11,"N#Cc1ccc(O[C@H]2CC[C@H](NC(=O)c3ccc(N4CCC(CN5CCC(n6ccc7c(N8CCC(=O)NC8=O)nccc76)CC5)CC4)cc3)CC2)cc1Cl [EAR197, N-((1r,4r)-4-(3-Chloro-4-cyanophenoxy)cyclohexyl)-4-(4-((4-(4-(2,4-dioxotetrahydropyrimidin-1(2H)-yl)-1H-pyrrolo[3,2-c]pyridin-1-yl)piperidin-1-yl)methyl)piperidin-1-yl)benzamide]",≥ 50
12,"N#Cc1ccc(O[C@H]2CC[C@H](NC(=O)c3ccc(N4CCC[C@@H](CN5CCC(n6ncc7c(N8CCC(=O)NC8=O)cccc76)CC5)C4)nn3)CC2)cc1Cl [EAR153, N-((1r,4S)-4-(3-Chloro-4-cyanophenoxy)cyclohexyl)-6-((S)-3-((4-(4-(2,4-dioxotetrahydropyrimidin-1(2H)-yl)-1H-indazol-1-yl)piperidin-1-yl)methyl)piperidin-1-yl)pyridazine-3-carboxamide, formic acid salt]",≥ 50
13,"CN(c1ccc(C#N)c(Cl)c1)[C@H]1CC[C@H](NC(=O)c2ccc(N3CCC(CN4CCC(n5ccc6c(N7CCC(=O)NC7=O)cccc65)CC4)CC3)nn2)CC1 [EAR157, N-((1r,4r)-4-((3-Chloro-4-cyanophenyl)(methyl)amino)cyclohexyl)-6-(4-((4-(4-(2,4-dioxotetrahydropyrimidin-1(2H)-yl)-1H-indol-1-yl)piperidin-1-yl)methyl)piperidin-1-yl)pyridazine-3-carboxamide]",≥ 50
14,"CC(C1CCN(c2ccc(C(=O)N[C@H]3CC[C@H](Oc4ccc(C#N)c(Cl)c4)CC3)nn2)CC1)N1CCC(n2ccc3c(N4CCC(=O)NC4=O)cncc32)CC1 (some centres unmarked) [EAR135, N-((1r,4r)-4-(3-Chloro-4-cyanophenoxy)cyclohexyl)-6-(4-(1-(4-(4-(2,4-dioxotetrahydropyrimidin-1(2H)-yl)-1H-pyrrolo[2,3-c]pyridin-1-yl)piperidin-1-yl)ethyl)piperidin-1-yl)pyridazine-3-carboxamide]",≥ 50
15,"C[C@@H]1CN(c2ccc(C#N)c(Cl)c2)[C@@H](C)CN1C(=O)Nc1ccc(N2CCC(CN3CCC(n4ccc5c(N6CCC(=O)NC6=O)cccc54)CC3)CC2)nc1 [EAR108, (2R,5S)-4-(3-Chloro-4-cyanophenyl)-N-(6-(4-((4-(4-(2,4-dioxotetrahydropyrimidin-1(2H)-yl)-1H-indol-1-yl)piperidin-1-yl)methyl)piperidin-1-yl)pyridin-3-yl)-2,5-dimethylpiperazine-1-carboxamide]",≥ 50
16,"N#Cc1ccc(O[C@H]2CC[C@H](NC(=O)c3cnc(N4CCC(CN5CCC(n6ccc7c(N8CCC(=O)NC8=O)cncc76)CC5)CC4)cn3)CC2)cc1Cl [AR16, N-((1r,4r)-4-(3-Chloro-4-cyanophenoxy)cyclohexyl)-5-(4-((4-(4-(2,4-dioxotetrahydropyrimidin-1(2H)-yl)-1H-pyrrolo[2,3-c]pyridin-1-yl)piperidin-1-yl)methyl)piperidin-1-yl)pyrazine-2-carboxamide]",≥ 50
17,"CC1(C)C(=O)N(c2ccc(C#N)c(C(F)(F)F)c2)C(=S)N1c1ccc(N2CCC(CCN3CCC(n4ncc5c(N6CCC(=O)NC6=O)cncc54)CC3)CC2)cc1 [EAR97, 4-(3-(4-(4-(2-(4-(4-(2,4-Dioxotetrahydropyrimidin-1(2H)-yl)-1H-pyrazolo[3,4-c]pyridin-1-yl)piperidin-1-yl)ethyl)piperidin-1-yl)phenyl)-4,4-dimethyl-5-oxo-2-thioxoimidazolidin-1-yl)-2-(trifluoromethyl)benzonitrile formate]",≥ 50
